Reference: article PMC8347148, “An Evaluation of Human Induced Pluripotent Stem Cells to Test for Cardiac Developmental Toxicity” (International Journal of Molecular Sciences, 2021)
Values after ≈ are worked out from the molar mass of the structure shown. Read-outs that look alike come from different tables or passages of the source.

Experiments:
[1] = test system: human foreskin fibroblasts (hFF); experiment: hFF viability screen (MTT); format: cell-based; details: for IC50: Homo sapiens, Fibroblast; for concentrations with reductions in hFF cell viability: Figure 4B
Experimental: Human foreskin fibroblasts (hFF) were gifted from Dr. Derrick Rancourt (University of Calgary). hFFs were seeded onto 0.1% gelatin-coated tissue culture plates and maintained in Dulbecco’s modification of Eagle’s medium (DMEM with 4.5 g/L glucose, L-glutamine and sodium pyruvate; Corning cellgro) supplemented with 10% FBS (Atlanta Biologicals, Flower Branch, GA, USA) and 0.5% penicillin/streptomycin (10,000 units/10,000 units, Gibco).
(§1) 5-flurorouracil (5-FU), all-trans retinoic acid (atRA), and penicillin G (PenG) were selected from a subset of chemicals used in the original EST validation study. 5-FU and atRA were selected as positive test compounds due to their established embryotoxic potential while PenG was used as a negative control. All chemicals were purchased from Sigma. Stock solutions were prepared in DMSO and filtered through a 0.2 micron Acrodisc® PSF Syringe Filter (Pall Corporation, Port Washington, NY, USA), aliquoted into sterile microcentrifuge tubes and stored at −20 °C until use. Test chemicals were serially diluted to final concentrations in differentiation media. Cardiogenic cultures were treated with designated chemicals (or solvent only) through day 25 of differentiation and hFF cultures were treated with each compound for a 25 day duration period. Compounds were replenished with each medium change.
Cardiomyocyte survival following concurrent exposure to each compound was evaluated by 3-[4,5-dimethylthiazol-2-yl]-2,5-diphenylterazolium bromide (MTT) assay from three independent differentiations each carried out in technical quintuplicate as previously described. On day 25 of differentiation, cells were incubated with MTT (5 mg/mL) for 2 h at 37 °C. MTT supernatant was removed and replaced with a desorb solution of 0.7% SDS in 2-propanol. The absorbance of the solution was measured at 570 nm in an iMark™ microplate reader (Bio-Rad) with 655 nm as a reference wavelength. Here, mitochondrial dehydrogenase activity on the MTT in solution is directly proportional to a blue-purple product that is detected at 570 nm.
Half-maximal inhibitory compound doses of differentiation (ID50) and cytotoxicity (IC50) were determined from concentration-response curves using GraphPad Prism.

mESCs [2] = test system: mESCs; design: method as in PMID 14761682; details: mESC-EST, inhibition of differentiation; previously obtained in the authors' lab; cited from earlier work
[3] = test system: RIV9 hiPSC-derived cardiomyocytes; experiment: hiPSC-EST cardiac contractile assay (count of contracting cardiomyocyte clusters); format: cell-based, human; details: for doses with reduced contractile activity / incidence: Figure 3; for hiPSC ID50: day 25, 50% inhibition of functional (contracting) cardiomyocytes vs control
Experimental: The hiPSC cell line RIV9 was obtained from the Stem Cell Core at the University of California, Riverside. hiPSCs were seeded on Matrigel (Corning, Glendale, AZ, USA)-coated tissue culture plates and maintained in a pluripotent state in mTeSR® medium (Stem Cell Technologies, Seattle, WA, USA). Cells were cultured under a humidified atmosphere of 5% CO2 at 37 °C and passaged for maintenance or to seed for experiments approximately every 5 days as previously described.
After cells reached 70% confluency (designated day 0), the medium was changed to control differentiation medium supplemented with 0.06 mg/mL ascorbic acid (Sigma-Aldrich, St. Louis, MO, USA) to induce cardiac differentiation. Control differentiation medium was comprised of Dulbecco’s modified Eagle’s medium (DMEM with 4.5 g/L glucose, L-glutamine and sodium pyruvate; Corning) supplemented with 18% FBS (PAA), 0.8% penicillin/streptomycin (10,000 units/10,000 units, Gibco, ThermoFisher Scientific, Grand Island, NY, USA), 0.12% non-essential amino acids (NEAA; Gibco), and 0.1 mM β-mercaptoethanol (Gibco). Cultures were cultured in differentiation media for 25 days, starting from day 0.
as §1
A University of Kentucky smoking machine was used to produce smoke extract solutions from commercially available conventional Marlboro Red 100 brand cigarettes as previously described. The smoking machine took a 2.2 s puff of mainstream (MS) smoke every minute. Smoke solution concentrations were made in puff equivalents (PE), which are the number of cigarette puffs dissolved in 1 mL of medium. MS smoke solutions were produced by pulling 30 puffs of MS smoke through 10 mL of DMEM. Resulting 3 PE smoke extracts were filtered through a 0.2 micron Acrodisc® PSF Syringe Filter (Pall Corporation, Port Washington, NY, USA), aliquoted into sterile microcentrifuge tubes, and stored at −80 °C until use. Serial dilutions were performed in differentiation medium to reach desired final exposure concentrations. Cardiogenic cultures were treated with smoke solutions through 25 days of differentiation. Smoke solutions were replenished with each medium change.
A 10% (w/v) Camel Snus extract was prepared as previously described. Ten grams of Snus was added to 85 mL of DMEM and allowed to incubate at 37 °C for 2 h. This initial extract solution was centrifuged for 10 min at 4500× g. Supernatant from the first round of centrifugation was then centrifuged again at 13,000× g for 1 h. The resulting supernatant was collected and pH adjusted to 7.4. 15 mL of FBS was added to the pH-adjusted Snus extract to produce a 10% stock solution of Snus tobacco extract (STE). The stock solution was then sterile-filtered with a 0.22 μm vacuum filter system. STE was aliquoted into sterile microcentrifuge tubes and stored at −80 °C until use. Serial dilutions were performed in differentiation medium to reach desired final exposure concentrations. Cardiogenic cultures were treated with STE through 25 days of differentiation. STE was replenished with each medium change. […]

hiPSC = experiment: hiPSC-EST biostatistical prediction model; design: species or system human; details: for hiPSC (day 25 cluster) Biostatistical Embryotoxicity Classification: EST prediction model with contractile ID50, hiPSC IC50 and hFF IC50; for hiPSC (day 10 qPCR) Biostatistical Embryotoxicity Classification: EST prediction model with d10 TBX5 ID50
From the text: The prediction model uses a series of equations to perform a linear discriminant analysis using determined IC50 and ID50 values determined from dose–response curves. […] Importantly, half-maximal concentrations found for 5-FU and atRA were decades lower than the maximum plasma concentration (Cmax) achieved during human exposure underscoring the strong potential of these two compounds to elicit embryotoxic outcomes in vivo.
To compare the efficacy of qPCR-based embryotoxicity classifications versus contractile assay-based classifications, the ID50 values generated from 5-FU and atRA TBX5 mRNA dose–response curves were compared against the ID50 values from the contractile assay curves in the EST biostatistical model.

mESCs [4] = test system: mESCs; design: method as in PMID 14761682; details: mESC-EST, cell viability; previously obtained in the authors' lab; cited from earlier work
[5] = 600 h, MTT, 25 day treatment, read-out: hFF IC50
[6] = fibroblast row of the hiPSC-EST in Table 1 (values equal hFF IC50 of Table 2), read-out: hiPSC 3T3 IC50

| SMILES | effect on hFF cell viability [1] | IC50 [1, 5] | IC50 [1, 6] | hFF IC50 ([1]; MTT, 25 day treatment) | concentrations with reductions in hFF cell viability ([1]; MTT) | concentration with significant cell death in hFF ([1]; highest tested concentration) | mESCs ID50 (mESCs [2]) | increase in contractile cluster incidence ([3]; 1 × 10^−8 μg/mL) | concentrations at which cells failed to form contractile clusters ([3]; Figure 2) | doses with reduced contractile activity / incidence [3] | hiPSC ID50 [3] | hiPSC (day 25 cluster) Biostatistical Embryotoxicity Classification (hiPSC) | hiPSC (day 10 qPCR) Biostatistical Embryotoxicity Classification (hiPSC) | mESCs IC50 (mESCs [4]) | concentrations that negatively impacted the formation of contractile structures ([3]; by day 20, Figure 2) | effect on formation of contractile structures [3] | hiPSC (day 25 cluster) Biostatistical Embryotoxicity Classification (hiPSC; listed as PenG) | hiPSC (day 10 qPCR) Biostatistical Embryotoxicity Classification (hiPSC; listed as PenG) |
| --- | --- | --- | --- | --- | --- | --- | --- | --- | --- | --- | --- | --- | --- | --- | --- | --- | --- | --- |
| CC1=C(/C=C/C(C)=C/C=C/C(C)=C/C(=O)O)C(C)(C)CCC1 [All-Trans Retinoic Acid, all-trans retinoic acid] | dose-dependent reduction in cell viability | 0.0125 µg/mL (≈ 0.0415 µM) | 0.0125 µg/mL (≈ 0.0416 µM) | 0.0125 µg/mL | > 10 ng/mL | 1000 ng/mL | 0.0017 µg/mL | ~2 fold | above 1 × 10^−3 μg/mL | above 1 × 10^−8 μg/mL | 0.000933 ng/mL | Strongly embryotoxic | Strongly embryotoxic | 0.09 ng/mL |  |  |  |  |
| O=c1[nH]cc(F)c(=O)[nH]1 [5-Fluorouracil, 5-fluorouracil] | dose-dependent reduction in cell viability | 0.000808 µg/mL (≈ 0.00621 µM) | 0.00081 µg/mL (≈ 0.00623 µM) |  | > 0.1 ng/mL |  | 0.0097 µg/mL |  |  |  | 0.00229 ng/mL | Strongly embryotoxic | Strongly embryotoxic | 22 ng/mL | above 1 × 10^−6 μg/mL |  |  |  |
| CC1(C)S[C@@H]2[C@H](NC(=O)Cc3ccccc3)C(=O)N2[C@H]1C(=O)O [Penicillin G, penicillin G] |  | ~1430 µg/mL (≈ 4290 µM) | 1430 µg/mL (≈ 4290 µM) |  | ≥ 800000 ng/mL |  | 750 µg/mL |  |  | > 700 µg/mL | 739900 ng/mL | Not embryotoxic | Not embryotoxic | 800000 ng/mL |  | did not inhibit the formation of contractile structures | non-embryotoxic | non-embryotoxic |
